Experimental data taken from US7678918B2, “Intermediates for imidazonaphthyridines” (3M Innovative Properties Company, priority 1997, dated 2010).

Experiments:
[1] = system: IFN; assay: Cytokine Induction in Human Cells: interferon (IFN) secreted by PBMCs, A549/encephalomyocarditis bioassay; assay type: cell-based; conditions: 18 to 24 hours; note: call rule not given here
In short: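 Human PBMCs from healthy donors at 1.5-2×10^6 cells/mL in RPMI with 10% FBS, exposed to compounds (typically 0.1 to 100 μM, ≤1% DMSO) for 18 to 24 h at 37° C. Secreted IFN measured by A549/encephalomyocarditis virus cytopathic-effect bioassay, in alpha reference units/mL against NIH human leukocyte IFN standard.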

[2] = system: TNF; assay: Cytokine Induction in Human Cells: tumor necrosis factor (TNF) secreted by PBMCs, ELISA; assay type: cell-based; conditions: 18 to 24 hours; note: call rule not given here
In short: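 Human donor PBMCs at 1.5-2×10^6 cells/mL in RPMI with 10% FBS were exposed to compound, generally at 0.1 to 100 μM (≤1% DMSO final), for 18 to 24 h at 37 °C. Secreted TNF in supernatant was measured by ELISA and reported as pg/mL.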

[3] = system: interferon α; assay: Interferon (α) Induction in Human Cells (PBM's, 48 hours, A549 bioassay); assay type: cell-based; parameters: key: +: indicates that the compound induced interferon α at that particular concentration; −: indicates that the compound did not induce interferon α at that particular concentration; ±: indicates that the results were equivocal at that particular concentration; conditions: 48 hours incubation
Protocol: An in vitro human blood cell system was used to assess interferon induction by compounds of the invention. Activity is based on the measurement of interferon secreted into culture media. Interferon is measured by bioassay.
Whole blood was collected by venipuncture into EDTA vacutainer tubes. Peripheral blood mononuclear cells (PBM's) were separated from whole blood by using either LeucoPREP™ Brand Cell Separation Tubes (available from Becton Dickinson) or Ficoll-Paque® solution (available from Pharmacia LKB Biotechnology Inc, Piscataway, N.J.). The PBM's were suspended at 1×10^6/mL in RPMI 1640 media (available from GIBCO, Grand Island, N.Y.) containing 25 mM HEPES (N-2-hydroxyethylpiperazine-N′-2-ethanesulfonic acid) and L-glutamine (1% penicillin-streptomycin solution added) with 10% heat inactivated (56° C. for 30 minutes) autologous serum added. 200 μL portions of PBM suspension were added to 96 well (flat bottom) MicroTest III sterile tissue culture plates.
The compounds were solubilized in ethanol, dimethyl sulfoxide or tissue culture water then diluted with tissue culture water, 0.01N sodium hydroxide or 0.01N hydrochloric acid (The choice of solvent will depend on the chemical characteristics of the compound being tested.). Ethanol or DMSO concentration should not exceed a final concentration of 1% for addition to the culture wells. Compounds were initially tested in a concentration range of from about 0.1 μg/mL to about 5 μg/mL. Compounds which show induction at a concentration of 0.5 μg/mL were then tested in a wider concentration range.
The solution of test compound was added in a volume (less than or equal to 50 μL) to the wells containing 200 μL of diluted whole blood or of PBM's in media. Solvent and/or media was added to control wells (wells with no test compound) and as needed to adjust the final volume of each well to 250 μL. The plates were covered with plastic lids, vortexed gently and then incubated for 48 hours at 37° C. with a 5% carbon dioxide atmosphere.
Following incubation, the plates were covered with parafilm and then centrifuged at 1000 rpm for 10 to 15 minutes at 4° C. in a Damon IEC Model CRU-5000 centrifuge. Media (about 200 μL) was removed from 4 to 8 wells and pooled into 2 mL sterile freezing vials. Samples were maintained at −70° C. until analysis.
Interferon was determined by bioassay using A549 human lung carcinoma cells challenged with encephalomyocarditis. The details of the bioassay method have been described by G. L. Brennan and L. H. Kronenberg in “Automated Bioassay of Interferons in Micro-test Plates”, Biotechniques, June/July 78, 1983, incorporated herein by reference. Briefly stated the method is as follows: interferon dilutions and A549 cells are incubated at 37° C. for 12 to 24 hours. The incubated cells are infected with an inoculum of encephalomyocarditis virus. The infected cells are incubated for an additional period at 37° C. before quantifying for viral cytopathic effect. The viral cytopathic effect is quantified by staining followed by spectrophotometric absorbance measurements. Results are expressed as alpha reference units/mL based on the value obtained for NIH HU IF-L standard. The interferon was identified as essentially all interferon alpha by testing in checkerboard neutralization assays against rabbit anti-human interferon (beta) and goat anti-human interferon (alpha) using A549 cell monolayers challenged with encephalomyocarditis virus.

| Compound | IFN induction ([1]; Dose Concentration 0.1 μM) | IFN induction ([1]; Dose Concentration 1.0 μM) | IFN induction ([1]; Dose Concentration 10.0 μM) | IFN induction ([1]; Dose Concentration 100.0 μM) | TNF induction ([2]; Dose Concentration 0.1 μM) | TNF induction ([2]; Dose Concentration 1.0 μM) | TNF induction ([2]; Dose Concentration 10.0 μM) | TNF induction ([2]; Dose Concentration 100.0 μM) | Interferon (α) Induction in Human Cells ([3]; Dose Concentration 0.01 μg/mL) | Interferon (α) Induction in Human Cells ([3]; Dose Concentration 0.05 μg/mL) | Interferon (α) Induction in Human Cells ([3]; Dose Concentration 0.10 μg/mL) | Interferon (α) Induction in Human Cells ([3]; Dose Concentration 0.50 μg/mL) | Interferon (α) Induction in Human Cells ([3]; Dose Concentration 1.0 μg/mL) | Interferon (α) Induction in Human Cells ([3]; Dose Concentration 5.0 μg/mL) | Interferon (α) Induction in Human Cells ([3]; Dose Concentration 10.0 μg/mL) | Interferon (α) Induction in Human Cells ([3]; Dose Concentration 25.0 μg/mL) | Interferon (α) Induction in Human Cells ([3]; Dose Concentration 50.0 μg/mL) | melting point |
| --- | --- | --- | --- | --- | --- | --- | --- | --- | --- | --- | --- | --- | --- | --- | --- | --- | --- | --- |
| CC(C)Cn1cnc2c(N)nc3c(c21)CCCN3 [Example 10, 6,7,8,9-Tetrahydro-1-(2-methylpropyl)-1H-imidazo[4,5-c][1,8]naphthyridin-4-amine] | + | + | + | + | − | − | − | + | − | − | − | − | + | + | + | + | + | 231 to 233 °C |
| CC(C)Cn1cnc2c(N)nc3cnccc3c21 [Example 22, 1-(2-Methylpropyl)-1H-imidazo[4,5-c][1,7]naphthyridin-4-amine] |  | − | − | − |  | − | ± | + |  |  |  |  | − | − | − | + |  | 306 to 307 °C |
| CC(C)Cn1cnc2c(N)nc3c(c21)CCNC3 [Example 23, 6,7,8,9-Tetrahydro-1-(2-methylpropyl)-1H-imidazo[4,5-c][1,7]naphthyridin-4-amine] |  | + | + | − |  | − | ± | − |  |  |  |  | − | − | − | − |  | 220 to 223 °C |
| Cc1nc2c(N)nc3cnccc3c2n1CC(C)C [Example 25, 2-Methyl-1-(2-methylpropyl)-1H-imidazo[4,5-c][1,7]naphthyridin-4-amine] |  | − | + | + |  | − | ± | − | − | − | − | − | − | + | + | + |  | 322 to 324 °C |
| Cc1nc2c(N)nc3c(c2n1CC(C)C)CCNC3 [Example 26, 6,7,8,9-Tetrahydro-2-methyl-1-(2-methylpropyl)-1H-imidazo[4,5-c][1,7]naphthyridin-4-amine] |  | + | − | + |  | + | ± | − | − | − | − | − | − | ± | + | + |  | 226 to 230 °C |
| CCCCc1nc2c(N)nc3cnccc3c2n1CC(C)C [Example 27, 2-Butyl-1-(2-methylpropyl)-1H-imidazo[4,5-c][1,7]naphthyridin-4-amine] |  | + | + | + |  | + | + | + | − | − | + | + | + | + | + | + |  | 213 to 214 °C |
| CCCCc1nc2c(N)nc3c(c2n1CC(C)C)CCNC3 [Example 28, 2-Butyl-6,7,8,9-tetrahydro-1-(2-methylpropyl)-1H-imidazo[4,5-c][1,7]naphthyridin-4-amine] |  | + | + | + |  | − | + | + | − | ± | + | + | + | + | + | + |  | 164 to 166 °C |
| CC(C)Cn1cnc2c(N)nc3cccnc3c21 [Example 32, 1-(2-Methylpropyl)-1H-imidazo[4,5-c][1,5]naphthyridin-4-amine] |  | + | + | + |  | − | − | − | − | − | − | − | + | + | + | + | + | 230 to 231.5 °C |
| CC(C)Cn1cnc2c(N)nc3c(c21)NCCC3 [Example 33, 6,7,8,9-Tetrahydro-1-(2-methylpropyl)-1H-imidazo[4,5-c][1,5]naphthyridin-4-amine] |  | + | + | + |  | − | − | − | − | − | − | − | − | + | + | + | + | 222 to 226 °C |
